This passage reports IC50 results from patent publication US20250154141A1 (University of Florida Research Foundation, Incorporated, priority 2021, published 2025).

Read-outs that look alike come from different tables or passages of the source.

In experiment [1] the test system is MOLT-4. Briefly: Cell viability assay (MTS) in MOLT-4 cells. Type of experiment: cell-based. Conditions: Homo sapiens. As for the experimental part:
(§1) Acute lymphoblastic leukemia cells (MOLT-4 and RS4; 11) were incubated with increasing concentrations of Bcl-xL degraders for 48 h. Cell viability was measured by tetrazolium-based MTS assay.

Experiment [2] deals with RS4; 11. Kind of experiment: Cell viability assay (MTS) in RS4; 11 cells. Type of experiment: cell-based. Conditions: Homo sapiens. As for the experimental part:
as §1

Where [3] appears, read: MOLT-4, Table 2, 48 hr, MTS, read-out: Anti-Cancer Activity IC50 (48 hr) MOLT-4.
Where [4] appears, read: RS4-11, Table 2, 48 hr, MTS, read-out: Anti-Cancer Activity IC50 (48 hr) RS4, 11.

As for `Cc1ncsc1-c1ccc([C@H](C)NC(=O)[C@@H]2C[C@@H](O)CN2C(=O)[C@@H](NC(=O)CCCCC(=O)N2CCC(C3CCN(CC4(C)CCC(c5ccc(Cl)cc5)=C(CN5CCN(c6ccc(C(=O)NS(=O)(=O)c7ccc(N[C@H](CCN8C[C@H]9C[C@@H]8CO9)CSc8ccccc8)c([N+](=O)[O-])c7)cc6)CC5)C4)CC3)CC2)C(C)(C)C)cc1` (stereo partly shown) [Compound 54], the IC50 in experiment [1] (setting [3]) and in experiment [2] (setting [4]) was less than 20 nM each time.

On to `Cc1ncsc1-c1ccc([C@H](C)NC(=O)[C@@H]2C[C@@H](O)CN2C(=O)[C@@H](NC(=O)CCCCCNC(=O)c2ccc(N3CCN(CCN(C)CC4(C)CCC(c5ccc(Cl)cc5)=C(CN5CCN(c6ccc(C(=O)NS(=O)(=O)c7ccc(N[C@H](CCN8CCOCC8)CSc8ccccc8)c(S(=O)(=O)C(F)(F)F)c7)cc6)CC5)C4)CC3)cc2)C(C)(C)C)cc1` (stereo partly shown) [Compound 15], for which the half-inhibitory concentration (IC50) in experiment [1] (setting [3]) and in experiment [2] (setting [4]) was 20 to 100 nM in each case.

As to `Cc1ncsc1-c1ccc([C@H](C)NC(=O)[C@@H]2C[C@@H](O)CN2C(=O)[C@@H](NC(=O)COCCOCc2cn(CC3(C)CCC(c4ccc(Cl)cc4)=C(CN4CCN(c5ccc(C(=O)NS(=O)(=O)c6ccc(N[C@H](CCN7CCOCC7)CSc7ccccc7)c(S(=O)(=O)C(F)(F)F)c6)cc5)CC4)C3)nn2)C(C)(C)C)cc1` (stereo partly drawn) [Compound 21, (2S,4R)-1-((2S)-2-(2-(2-((1-((4′-chloro-4-methyl-6-((4-(4-(((4-(((R)-4-morpholino-1-(phenylthio)butan-2-yl)amino)-3-((trifluoromethyl)sulfonyl)phenyl)sulfonyl)carbamoyl)phenyl)piperazin-1-yl)methyl)-2,3,4,5-tetrahydro-[1,1′-biphenyl]-4-yl)methyl)-1H-1,2,3-triazol-4-yl)methoxy)ethoxy)acetamido)-3,3-dimethylbutanoyl)-4-hydroxy-N—((S)-1-(4-(4-methylthiazol-5-yl)phenyl)ethyl)pyrrolidine-2-carboxamide], the IC50 was 100 to 500 nM in experiment [1] (setting [3]) and 20 to 100 nM in experiment [2] (setting [4]).

As for `Cc1ncsc1-c1ccc([C@H](C)NC(=O)[C@@H]2C[C@@H](O)CN2C(=O)[C@@H](NC(=O)CCCCCNC(=O)c2ccc(N3CCN(C[C@]4(C)CCC(c5ccc(Cl)cc5)=C(CN5CCN(c6ccc(C(=O)NS(=O)(=O)c7ccc(N[C@H](CCN8CCCOCC8)CSc8ccccc8)c(S(=O)(=O)C(F)(F)F)c7)cc6)CC5)C4)CC3)nn2)C(C)(C)C)cc1` [Compound 79], the IC50 in experiment [1] (setting [3]) and in experiment [2] (setting [4]) was less than 20 nM throughout.

In the case of `Cc1ncsc1-c1ccc([C@H](C)NC(=O)[C@@H]2C[C@@H](O)CN2C(=O)[C@@H](NC(=O)CCCCCOCc2cn(CC3(C)CCC(c4ccc(Cl)cc4)=C(CN4CCN(c5ccc(C(=O)NS(=O)(=O)c6ccc(N[C@H](CCN7CCOCC7)CSc7ccccc7)c(S(=O)(=O)C(F)(F)F)c6)cc5)CC4)C3)nn2)C(C)(C)C)cc1` (stereo partly drawn) [Compound 20, (2S,4R)-1-((2S)-2-(6-((1-((4′-chloro-4-methyl-6-((4-(4-(((4-(((R)-4-morpholino-1-(phenylthio)butan-2-yl)amino)-3-((trifluoromethyl)sulfonyl)phenyl)sulfonyl)carbamoyl)phenyl)piperazin-1-yl)methyl)-2,3,4,5-tetrahydro-[1,1′-biphenyl]-4-yl)methyl)-1H-1,2,3-triazol-4-yl)methoxy)hexanamido)-3,3-dimethylbutanoyl)-4-hydroxy-N—((S)-1-(4-(4-methylthiazol-5-yl)phenyl)ethyl)pyrrolidine-2-carboxamide], the IC50 in experiment [1] (setting [3]) was 20 to 100 nM; in experiment [1] (MOLT-4, Table 5, 48 h, read-out: MOLT-4 48 h IC50), 88.1 nM; in experiment [2] (setting [4]), less than 20 nM; in experiment [2] (RS4-11, Table 5, 48 h, read-out: RS4 48 h IC50) it was 15.6 nM.

In the case of `Cc1ncsc1-c1ccc([C@H](C)NC(=O)[C@@H]2C[C@@H](O)CN2C(=O)[C@@H](NC(=O)CCCCCCC(=O)N2CCN(C[C@]3(C)CCC(c4ccc(Cl)cc4)=C(CN4CCN(c5ccc(C(=O)NS(=O)(=O)c6ccc(N[C@H](CCN7CCc8cccnc8C7)CSc7ccccc7)c(S(=O)(=O)C(F)(F)F)c6)cc5)CC4)C3)CC2)C(C)(C)C)cc1` [Compound 71], the IC50 in experiment [1] (setting [3]) lay within 100 to 500 nM; in experiment [2] (setting [4]), 20 to 100 nM.

In the case of `Cc1ncsc1-c1ccc([C@H](C)NC(=O)[C@@H]2C[C@@H](O)CN2C(=O)[C@@H](NC(=O)CCCCCCC(=O)N2CCN(CC3(C)CCC(c4ccc(Cl)cc4)=C(CN4CCN(c5ccc(C(=O)NS(=O)(=O)c6ccc(N[C@H](CCN7CCOCC7)CSc7ccccc7)c([N+](=O)[O-])c6)cc5)CC4)C3)CC2)C(C)(C)C)cc1` (stereo partly drawn) [Compound 33, (2S,4R)-1-((2S)-2-(8-(4-((4′-chloro-4-methyl-6-((4-(4-(((4-(((R)-4-morpholino-1-(phenylthio)butan-2-yl)amino)-3-nitrophenyl)sulfonyl)carbamoyl)phenyl)piperazin-1-yl)methyl)-2,3,4,5-tetrahydro-[1,1′-biphenyl]-4-yl)methyl)piperazin-1-yl)-8-oxooctanamido)-3,3-dimethylbutanoyl)-4-hydroxy-N—((S)-1-(4-(4-methylthiazol-5-yl)phenyl)ethyl)pyrrolidine-2-carboxamide], the IC50 in experiment [1] (setting [3]) was 20 to 100 nM; in experiment [2] (setting [4]), less than 20 nM.

`Cc1ncsc1-c1ccc([C@H](C)NC(=O)[C@@H]2C[C@@H](O)CN2C(=O)[C@@H](NC(=O)CC(=O)N2CCC(S(=O)(=O)N3CCN(C[C@]4(C)CCC(c5ccc(Cl)cc5)=C(CN5CCN(c6ccc(C(=O)NS(=O)(=O)c7ccc(N[C@H](CCN8CCCOCC8)CSc8ccccc8)c(S(=O)(=O)C(F)(F)F)c7)cc6)CC5)C4)CC3)CC2)C(C)(C)C)cc1` [Compound 100]: the IC50 fell in the range of 100 to 500 nM in experiment [1] (setting [3]) and 20 to 100 nM in experiment [2] (setting [4]).

For `Cc1ncsc1-c1ccc([C@H](C)NC(=O)[C@@H]2C[C@@H](O)CN2C(=O)[C@@H](NC(=O)CCCCCCNC(=O)c2ccc(N3CCN(C[C@]4(C)CCC(c5ccc(Cl)cc5)=C(CN5CCN(c6ccc(C(=O)NS(=O)(=O)c7ccc(N[C@H](CCN8C[C@H]9C[C@@H]8CO9)CSc8ccccc8)c(S(=O)(=O)C(F)(F)F)c7)cc6)CC5)C4)CC3)nc2)C(C)(C)C)cc1` [Compound 73], the IC50 was less than 20 nM in experiment [1] (setting [3]); 7.1 nM in experiment [1] (MOLT-4, Table 4, 48 h, read-out: MOLT-4 48 h IC50); less than 20 nM in experiment [2] (setting [4]); 13.9 nM in experiment [2] (RS4-11, Table 4, 48 h, read-out: RS4 48 h IC50).

For the molecule `Cc1ncsc1-c1ccc([C@H](C)NC(=O)[C@@H]2C[C@@H](O)CN2C(=O)[C@@H](NC(=O)CCCNC(=O)c2ccc(N3CCN(CCN(C)CC4(C)CCC(c5ccc(Cl)cc5)=C(CN5CCN(c6ccc(C(=O)NS(=O)(=O)c7ccc(N[C@H](CCN8CCOCC8)CSc8ccccc8)c(S(=O)(=O)C(F)(F)F)c7)cc6)CC5)C4)CC3)cc2)C(C)(C)C)cc1` (stereo partly shown) [Compound 14], the IC50 in experiment [1] (setting [3]) and in experiment [2] (setting [4]) was 20 to 100 nM each time.

In the case of `Cc1ncsc1-c1ccc([C@H](C)NC(=O)[C@@H]2C[C@@H](O)CN2C(=O)[C@@H](NC(=O)CCCCCNC(=O)c2cnc(N3CCN(C[C@]4(C)CCC(c5ccc(Cl)cc5)=C(CN5CCN(c6ccc(C(=O)NS(=O)(=O)c7ccc(N[C@H](CCN8CCCOCC8)CSc8ccccc8)c(S(=O)(=O)C(F)(F)F)c7)cc6)CC5)C4)CC3)nc2)C(C)(C)C)cc1` [Compound 78], the IC50 in experiment [1] (setting [3]) was less than 20 nM; in experiment [2] (setting [4]), 20 to 100 nM.

Consider `Cc1ncsc1-c1ccc([C@H](C)NC(=O)[C@@H]2C[C@@H](O)CN2C(=O)[C@@H](NC(=O)CN2CCN(C(=O)CC(=O)N3CCN(C[C@]4(C)CCC(c5ccc(Cl)cc5)=C(CN5CCN(c6ccc(C(=O)NS(=O)(=O)c7ccc(N[C@H](CCN8CCCOCC8)CSc8ccccc8)c(S(=O)(=O)C(F)(F)F)c7)cc6)CC5)C4)CC3)CC2)C(C)(C)C)cc1` [Compound 115], for which the IC50 in experiment [1] (MOLT-4, 48 h, read-out: Anti-Cancer Activity IC50 (48 hr) MOLT-4) was less than 20 nM; in experiment [2] (RS4-11, 48 h, read-out: Anti-Cancer Activity IC50 (48 hr) RS4, 11), less than 20 nM.

For `Cc1ncsc1-c1ccc([C@H](C)NC(=O)[C@@H]2C[C@@H](O)CN2C(=O)[C@@H](NC(=O)CCCCCCCNC(=O)c2ccc(N3CCN(CC4(C)CCC(c5ccc(Cl)cc5)=C(CN5CCN(c6ccc(C(=O)NS(=O)(=O)c7ccc(N[C@H](CCN8CCOCC8)CSc8ccccc8)c(S(=O)(=O)C(F)(F)F)c7)cc6)CC5)C4)CC3)cn2)C(C)(C)C)cc1` (stereo partly shown) [Compound 6], the IC50 in experiment [1] (setting [3]) is 500 to 10000 nM; in experiment [2] (setting [4]) it was 100 to 500 nM.

Turning to `Cc1ncsc1-c1ccc([C@H](C)NC(=O)[C@@H]2C[C@@H](O)CN2C(=O)[C@@H](NC(=O)CCCCS(=O)(=O)N2CCN(C[C@]3(C)CCC(c4ccc(Cl)cc4)=C(CN4CCN(c5ccc(C(=O)NS(=O)(=O)c6ccc(N[C@H](CCN7CCCOCC7)CSc7ccccc7)c(S(=O)(=O)C(F)(F)F)c6)cc5)CC4)C3)CC2)C(C)(C)C)cc1` [Compound 110], the IC50 in experiment [1] (MOLT-4, Table 2A, 48 hr, MTS, read-out: Anti-Cancer Activity IC50 (48 hr) MOLT-4) was 20 to 100 nM; in experiment [2] (RS4-11, Table 2A, 48 hr, MTS, read-out: Anti-Cancer Activity IC50 (48 hr) RS4, 11), less than 20 nM.

Turning to `Cc1ncsc1-c1ccc([C@H](C)NC(=O)[C@@H]2C[C@@H](O)CN2C(=O)[C@@H](NC(=O)CCCCCCC(=O)N2CCN(C[C@]3(C)CCC(c4ccc(Cl)cc4)=C(CN4CCN(c5ccc(C(=O)NS(=O)(=O)c6ccc(N[C@H](CCN7CCCC(F)(F)C7)CSc7ccccc7)c(S(=O)(=O)C(F)(F)F)c6)cc5)CC4)C3)CC2)C(C)(C)C)cc1` [Compound 88], the IC50 in experiment [1] (setting [3]) and in experiment [2] (setting [4]) was 500 to 10000 nM each time.
